How the values were obtained:
Male Wister rats [1] = experiment: Object recognition task model; type: in vivo, rat; settings: 0.1 mg/kg, p.o.
Description: Object Recognition Task Model
The cognition-enhancing properties of compounds of this invention were estimated using a model of animal cognition: the object recognition task model.
Male Wister rats (230-280 grams) obtained from N. I. N. (National Institute of Nutrition, Hyderabad, India) was used as experimental animals. Four animals were housed in each cage. […] Also the rats were habituated to individual arenas for 1 hour in the absence of any objects.
One group of 12 rats received vehicle (1 mL/Kg) orally and another set of animals received compound of the formula (I) either orally or i.p., before one hour of the familiar (T1) and choice trial (T2).
The experiment was carried out in a 50×50×50 cm open field made up of acrylic. In the familiarization phase, (T1), the rats were placed individually in the open field for 3 minutes, in which two identical objects (plastic bottles, 12.5 cm height×5.5 cm diameter) covered in yellow masking tape alone (a1 and a2) were positioned in two adjacent corners, 10 cm. from the walls. After 24 hours of the (T1) trial for long-term memory test, the same rats were placed in the same arena as they were placed in T1 trial. Choice phase (T2) rats were allowed to explore the open field for 3 minutes in presence of one familiar object (a3) and one novel object (b) (Amber color glass bottle, 12 cm high and 5 cm in diameter). Familiar objects presented similar textures, colors and sizes. During the T1 and T2 trial, explorations of each object (defined as sniffing, licking, chewing or having moving vibrissae whilst directing the nose towards the object at a distance of less than 1 cm) were recorded separately by stopwatch. Sitting on an object was not regarded as exploratory activity, however, it was rarely observed.
T1 is the total time spent exploring the familiar objects (a1+a2).
T2 is the total time spent exploring the familiar object and novel object (a3+b).
The object recognition test was performed as described by Ennaceur, A., Delacour, J., 1988, A new one-trial test for neurobiological studies of memory in rats—Behavioural data, Behav. Brain Res., 31, 47-59.

Male Wister rats [2] = experiment: Reversal of formalin induced nociception; type: in vivo; settings: p.o.; rat
Description: Reversal of Formalin Induced Nociception
The anti-nociceptive properties of compounds of this invention were evaluated using a model of pain: the Formalin Induced Nociception model. Male Wister rats (230-280 grams) obtained from N. I. N. (National Institute of Nutrition, Hyderabad, India) was used as experimental animals.
Rats were habituated for 20 minutes in the arena before the experiment was started. Duration of licks, bites and flinches were noted from 0-10 minutes and 20-35 minutes after administration of formalin, subplantar into the right hind paw at concentrations of 5% v/v. 50 μL of water for injection was injected into the right hind paw of the rats of the sham group. Compounds of this invention were administered orally prior to formalin administration.

[3] = target: Nicotinic Acetylcholine α4β2 Receptor (UniProt P09483+P12390); experiment: Binding assay for human or rat nicotinic acetylcholine α4β2 receptor ([3H]Cytisine displacement); settings: [3H]Cytisine 2.5 nM; rat brain frontal cortex or recombinant human receptor in CHO cells (not specified which); read-out: Ki
Description: Binding Assay for Human or Rat Nicotinic Acetylcholine α4β2 Receptor
• Receptor source: Rat brain frontal cortex or recombinant human cDNA expressed in CHO cells • Radioligand: [^3H]Cytisine 15-40 Ci/mmole • Final ligand concentration—[2.5 nM] • Non-specific determinant: Epibatidine—[0.1 μM] • Reference compound: Epibatidine • Positive control: Epibatidine Incubation Conditions:
Increasing concentrations of test compounds or standard were incubated with membrane receptors and radioligand in 120 mM NaCl, 2.5 mM KCl, 1 mM CaCl2, 1 mM MgCl2 and 50 mM TRIS-HCl (pH 7.4) for 60 minutes at room temperature. The reaction was terminated by rapid vacuum filtration onto the glass fiber filters. Radioactivity trapped onto the filters was determined and compared to the control values in order to ascertain any interactions of the test compound(s) with either cloned human or rat receptor binding site.
Literature Reference: Bunnelle W. H., Daanen J. F., Ryther K. B., Schrimpf M. R., Dart M. J., Gelain A., Meyer M. D., Frost J. M., Anderson D. J., Buckley M., Curzon P., Cao Y-J., Puttfarcken P., Searle X., Ji J., Putman C. B., Surowy C., Toma L. and Barlocco D. Structure-Activity Studies and Analgesic Efficacy of N-(3-Pyridinyl)-Bridged Bicyclic Diamines, Exceptionally Potent Agonists at Nicotinic Acetylcholine Receptors. J. Med. Chem. 2007, 50, […].

[4] = Rodent pharmacokinetic study; type: in vivo; settings: Wistar, in vivo, Wister rat/Male; for AUC(0-t) / Cmax / Tmax / half-life: 5 mg/kg
Description: Rodent Pharmacokinetic Study
Three to five animals were housed in each cage. Animals were kept fasted over night and maintained on a 12 hours light/dark cycle. Three rats were dosed NCE orally (15 or 5 mg/kg) and intravenously (5 mg/kg) on day 0 and day 2
At each time point blood was collected by jugular vein. Plasma was stored frozen at −20° C. until analysis. The concentrations of the NCE compound in plasma were determined using LC-MS/MS method. Schedule time points: Pre dose 0.25, 0.5, 1, 1.5, 2, 3, 4, 6, 8, 10, 12 and 24 hours after dosing (n=3).
Pharmacokinetic parameters Cmax, Tmax, AUCt, T1/2 and Bioavailability were calculated by non-compartmental model using software WinNonlin version 5.0.1.

Male Sprague Dawley rats = experiment: DRL-72s model of animal depression; type: in vivo; settings: p.o.; rat
Description: The antidepressant properties of compounds of this invention were evaluated using a model of animal depression: the DRL-72s model. Male Sprague Dawley rats were used as experimental animals. Rats are trained to lever press for a 4″ access to 0.025 ml of water for each correct response during daily 60 minute sessions. All testing takes place on weekdays only. At the beginning of each session, the house light is illuminated and remains lit until the session ends. No other stimuli are presented during testing. After successful lever press training, rats are then required to respond under a DRL-24 second schedule, where only lever presses that are separated by 24 seconds are reinforced. Upon stable responding on a DRL-24 second schedule (5-10 sessions), rats are trained on a DRL-72 second schedule until responding stabilizes at approximately 15% efficiency (approx 25-35 sessions). Specifically, rats receive a reinforcer for each response that is emitted at least 72 seconds after the previous response (IRT). […] Efficiency is recorded as number of reinforced responses÷total number of responses. After stable baseline responding is achieved, defined as responding for 4 consecutive sessions with no more than 10% variability, animals begin drug testing. Animals receive drug no more than 1× per week.

in vivo = settings: male, Wistar, rat, po, 5 mg/kg
Description: Rodent Brain Penetration Study
Three animals were housed in each cage. Animals were given water and food ad libitum throughout the experiment, and maintained on a 12 hours light/dark cycle.
NCE compound was dissolved in water and administered orally. At Tmax (0.5, 1.0 and 2.0) animals were sacrificed to collect the plasma and brain tissue and were homogenized. Plasma and Brain was stored frozen at −20° C. until analysis. The concentrations of the NCE compound in plasma and Brain were determined using LC-MS/MS method.
The NCE compounds were quantified in plasma and brain homogenate by validated LC-MS/MS method using solid phase extraction technique. NCE compounds were quantified in the calibration range of 1-500 ng/mL in plasma and brain homogenate. Study samples were analyzed using calibration samples in the batch and quality control samples spread across the batch. Extents of brain-blood ratio were calculated (Cb/Cp).

NCC1CC2CC2N1c1cncc(Cl)c1.O=C(O)/C=C/C(=O)O (stereo not shown) [Example 13, [2-(5-Chloropyridin-3-yl)-2-aza-bicyclo[3.1.0]hex-3-yl]methylamine fumarate]
Inference (Male Wister rats [1]): Active | Exploration time mean ± S.E.M, Familiar object (Male Wister rats [1]; choice trial): 7.32 ± 1.04 s | Exploration time mean ± S.E.M, Novel object (Male Wister rats [1]; choice trial): 22.77 ± 2.12 s | Dose (reversal of formalin induced nociception) (Male Wister rats [2]): ≧30 mg/kg, p.o. | Ki [3]: 3.5 nM | bioavailability ([4]; 5 mg/kg Per-Oral vs 5 mg/kg Intravenous): 89 ± 18% | AUC(0-t) ([4]; Intravenous): 1760 ± 228 ng·h/mL | Cmax ([4]; Intravenous): 836 ± 239 ng/mL | Tmax ([4]; Intravenous): 4.8 min | half-life ([4]; Intravenous): 85.8 ± 6.6 min | AUC(0-t) ([4]; Per-Oral): 1540 ± 165 ng·h/mL | Cmax ([4]; Per-Oral): 753 ± 277 ng/mL | Tmax ([4]; Per-Oral): 22.8 ± 8.4 min | half-life ([4]; Per-Oral): 105 ± 24 min | Dose (DRL-72s) (Male Sprague Dawley rats): ≧10 mg/kg, p.o. | Kp (in vivo): 10.8 ± 1.29
